Data from ChEMBL document CHEMBL1201862, “PubChem BioAssay data set” (2004).
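1) Cells in 96-well plates. 2) Compound, 48 h, 5 concentrations. 3) Linear interpolation between surrounding doses. 4) Unreached endpoint = highest concentration. GI50 is the concentration that inhibits growth by half.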 The source made the active and inactive calls. Cut-off read from the data, not from the text of the source: active = GI50 up to about 1.1 µM and inactive = higher.

Assays:
Test in all cases: NCI anticancer screen, dose series, 48 h
DLD-1 = tested on: DLD-1
SNB-78 = tested on: SNB-78
KM-20L2 = tested on: KM-20L2
HOP-18 = tested on: HOP-18
M19-MEL = tested on: M19-MEL
RXF 631 = tested on: RXF 631
XF498 = tested on: XF498
DMS-273 = tested on: DMS-273
DMS-114 = tested on: DMS-114

Measured: GI50

C[n+]1c2ccccc2c(NC(CCC(N)=O)C(=O)O)c2ccccc21 (configuration not stated)
inactive: DLD-1 > 100 µM | SNB-78 > 100 µM | KM-20L2 > 100 µM | HOP-18 > 100 µM | M19-MEL > 100 µM | RXF 631 > 100 µM | XF498 > 100 µM | DMS-273 > 100 µM | DMS-114 > 100 µM

NC(CNc1ccc(O)cc1)C(=O)O (configuration not stated)
inactive: DLD-1 > 100 µM | SNB-78 > 100 µM | KM-20L2 63 µM | HOP-18 > 100 µM | M19-MEL 28.8 µM | RXF 631 92.3 µM | XF498 13.5 µM | DMS-273 > 100 µM | DMS-114 > 100 µM

O=S1OC(c2ccccc2)(c2ccccc2)C(c2ccccc2)(c2ccccc2)O1
inactive: DLD-1 > 73.8 µM | SNB-78 > 100 µM | KM-20L2 18 µM | HOP-18 > 100 µM | M19-MEL > 86.7 µM | RXF 631 > 100 µM | XF498 56.2 µM | DMS-273 > 100 µM | DMS-114 36.8 µM
